Assay results published in patent publication US20130101684A1, “Compounds, Compositions, And Methods For Reducing Or Eliminating Bitter Taste” (Chromocell Corporation, priority 2010, published 2013).
Like-named read-outs stand apart in the source and are kept apart here.

Key:
Type in all cases: in vivo, humans
[1] = test system: bitter taste of an aqueous solution of KCl; test: Sip and spit taste test of aqueous KCl test solutions, bitterness rated 0-15 against KCl solution standards; settings: aqueous KCl 4.85 g/L, 1% EtOH, human panel, vs KCl solution standard, dash = at none of the tested conc.
Protocol: Edible KCl solution compositions (“KCl test solutions”) were prepared by first dissolving varying amounts of the test compounds in an amount of ethanol or water (depending on the solubility of the compound) to create a 5 mg/mL stock compound solution. An amount of this stock compound solution is then added to an aqueous KCl solution. Enough EtOH is then added to the resulting stock compound/KCl solution so that the final KCl test solution contains 1% EtOH. KCl solution standards were similarly prepared by dissolving various amounts of KCl in water and ethanol without adding any test compound. […] The effect of the test compounds on the perception of the bitter taste of an aqueous solution of KCl in humans was evaluated using a “sip and Spit” test as follows. A set of KCl solutions standards was developed and each standard solution was assigned a bitterness taste score of 0-15 (corresponding to aqueous KCl concentrations of 0 mM-120 mM). Panelists were trained to recognize these standards. In addition, before each day of testing, panelists were tested to see if they could determine differences in taste between the standard solutions, if a panelist was unable to recognize a change in KCl concentration, they were excluded from the panel for that day. In a blind taste test, panelists were asked to compare the bitter taste of a small quantity (e.g. 8 ml) of each of the KCl Test Solutions to the taste of a KCl solution standard, without swallowing (see, e.g., Table 1). Specifically, panelists were asked to rate the bitterness of each KCl Test Solution on a scale of 0-15 using the same scale developed for the KCl solution standards. Each sample was tested in 2-4 discrete taste test experiments. Panelists were asked to rinse with water, eat a cracker, and wait approximately 10 minutes between samples.

[2] = test system: bitter taste of potassium lactate foodstuffs; test: Two-alternative forced choice (2AFC) sip and spit test of potassium lactate turkey foodstuff slurries; settings: turkey slurry with potassium lactate (KLac) 4.5%, 1% EtOH, 2AFC vs KLac slurry standard, dash = at none of the tested conc.; for minimal effective concentration: Homo sapiens
Protocol: In a blind taste test, panelists received two portions of turkey slurry—one portion being the KCl foodstuff slurry standard and the other being one of the KCl test foodstuff slurries (each prepared as described in Example 5). The panelists tasted each of the portions by sipping and spitting. Each sample was tested in 2-4 discrete taste test experiments. Panelists were asked to rinse with water, eat a cracker, and wait about 10 minutes between samples. In each case, the panelists were asked to compare the bitter taste of the two turkey samples to each other (i.e. panelists were asked to indicate which sample was less bitter). Edible potassium lactate food compositions (“potassium lactate test foodstuff slurries”) were prepared as follows, Dehydrated, salt-free turkey powder was weighed and mixed with various amounts of potassium lactate and/or sodium lactate and then solubilized with boiling water to create a homogenized solubilized turkey slurry. Varying amounts of the test compounds were dissolved in an amount of ethanol or water (depending on the solubility of the compound) to create a 5 mg/mL stock compound solution. An amount of this stock compound solution was then added to the turkey slurry. Enough EtOH is then added to the resulting stock compound/turkey slurry so that the final slurry contains 1% EtOH. The final slurry was again homogenized by boiling and mixing and allowed to cool to yield the final slurry for taste testing. Potassium lactate foodstuff slurry standards were similarly prepared without any test compound. […] The effect of the test compounds on the perception of the bitter taste of potassium lactate foodstuffs in humans was evaluated using the two-alter native-forced-choice “sip and spit” test described in Example 6.

[3] = test system: bitter taste of KCl foodstuff slurries; test: Two-alternative forced choice (2AFC) sip and spit test of KCl turkey foodstuff slurries; settings: turkey slurry with KCl 1.6%, 1% EtOH, 2AFC vs KCl slurry standard, dash = at none of the tested conc.; for minimal effective concentration: Homo sapiens
Protocol: Edible KCl food compositions (“KCl test foodstuff slurries”) were prepared as follows. Dehydrated, salt-free turkey powder was weighed and mixed with various amounts of KCl and/or NaCl and then solubilized with boiling water to create a homogenized solubilized turkey slurry. Varying amounts of the test compounds were dissolved in an amount of ethanol or water (depending on the solubility of the compound) to create a 5 mg/mL stock compound solution. An amount of this stock compound solution was then added to the turkey slurry. Enough EtOH is then added to the resulting stock compound/turkey slurry so that the slurry contains 1% EtOH. The slurry was again homogenized by boiling and mixing and allowed to cool to yield the final KCl test foodstuff slurry for taste testing. KCl foodstuff slurry standards were similarly prepared without any test compound. […] The effect of the test compounds on the perception of the bitter taste of KCl foodstuff slurries in humans was evaluated using a two-alternative-forced-choice “sip and spit” test as follows. In a blind taste test, panelists received two portions of turkey slurry—one portion being the KCl foodstuff slurry standard and the other being one of the KCl test foodstuff slurries (each prepared as described in Example 5). The panelists tasted each of the portions by sipping and spitting. Each sample was tested in 2-4 discrete taste test experiments. Panelists were asked to rinse with water, eat a cracker, and wait about 10 minutes between samples. In each case, the panelists were asked to compare the bitter taste of the two turkey samples to each other (i.e. panelists were asked to indicate which sample was less bitter).

[4] = test system: bitter taste of an aqueous solution of potassium lactate; test: Sip and spit taste test of aqueous potassium lactate test solutions; settings: aqueous potassium lactate (KLac) 41 g/L, 1% EtOH, human panel, dash = at none of the tested conc.
Protocol: A set of KCl solutions standards was developed and each standard solution was assigned a bitterness taste score of 0-15 (corresponding to aqueous KCl concentrations of 0 mM-120 mM). Panelists were trained to recognize these standards. In addition, before each day of testing, panelists were tested to see if they could determine differences in taste between the standard solutions, if a panelist was unable to recognize a change in KCl concentration, they were excluded from the panel for that day. In a blind taste test, panelists were asked to compare the bitter taste of a small quantity (e.g. 8 ml) of each of the KCl Test Solutions to the taste of a KCl solution standard, without swallowing (see, e.g., Table 1). Specifically, panelists were asked to rate the bitterness of each KCl Test Solution on a scale of 0-15 using the same scale developed for the KCl solution standards. Each sample was tested in 2-4 discrete taste test experiments. Panelists were asked to rinse with water, eat a cracker, and wait approximately 10 minutes between samples. Edible potassium lactate solution compositions (“potassium lactate test solutions”) were prepared by first dissolving varying amounts of the test compounds in an amount of ethanol or water (depending on the solubility of the compound) to create a 5 mg/mL stock compound solution. An amount of this stock compound solution is then added to an aqueous potassium lactate solution. Enough EtOH is then added to the resulting stock compound/potassium lactate solution so that the final potassium lactate test solution contains 1% EtOH. Potassium lactate solution standards were similarly prepared by dissolving various amounts of potassium lactate in water and ethanol without adding any test compound. […] The effect of the test compounds on the perception of the bitter taste of an aqueous solution of potassium lactate in humans was evaluated using the “sip and spit” test described in Example 2.

[5] = read-out: Conc. at Which At Least 50% of Panelist Discerned Decrease in Bitter Taste and p ≦ 0.1
[6] = read-out: Conc. at Which At Least 50% of Panelist Discerned Decrease in Bitter Taste
[7] = read-out: Conc. Where Decrease in Bitter Taste Discerned and p ≦ 0.1
[8] = read-out: Conc. Where Decrease in Bitter Taste Was Discerned

Structure (SMILES): CCn1ncc(Br)c1C(=O)Nc1ccccc1C(=O)OC [Compound 23]
- Conc. Where Decrease in Bitter Taste Discerned and p ≦ 0.1 [1]: 40 ppm
- Conc. Where Decrease in Bitter Taste Was Discerned [1]: 40 ppm
- Conc. at Which At Least 50% of Panelist Discerned Decrease in Bitter Taste and p ≦ 0.1 [2]: 1 ppm

Structure (SMILES): COC(=O)c1ccccc1NC(=O)c1c(I)cnn1C [Compound 24]
- minimal effective concentration [2, 5]: 30 µg/mL
- minimal effective concentration [3, 5]: 10 µg/mL

Structure (SMILES): CCn1cc(Br)c(C(=O)Nc2ccccc2C(=O)OC)n1 [Compound 25]
- minimal effective concentration [2, 6]: 1 µg/mL
- minimal effective concentration [4, 7]: 10 µg/mL
- minimal effective concentration [4, 8]: 10 µg/mL

Structure (SMILES): CCOC(=O)c1ccccc1NC(=O)c1c(Cl)cnn1C [Compound 26]
- minimal effective concentration [2, 6]: 30 µg/mL
- minimal effective concentration [4, 7]: 1 µg/mL
- minimal effective concentration [3, 5]: 1 µg/mL

Structure (SMILES): O=C(O)c1cccc2c1NC(c1cccc(Br)c1)C1CC=CC21 (stereo not drawn) [Compound 37]
- minimal effective concentration [1, 7]: 1 µg/mL
- minimal effective concentration [1, 8]: 1 µg/mL
- minimal effective concentration [2, 5]: 10 µg/mL

Structure (SMILES): COC(=O)c1cccc2c1NC(c1ccc(Cl)cc1Cl)C1CC=CC21 (stereo not drawn) [Compound 38]
- minimal effective concentration [1, 7]: 1 µg/mL
- minimal effective concentration [1, 8]: 1 µg/mL
- minimal effective concentration [2, 6]: 30 µg/mL

Structure (SMILES): CCCC(=O)Nc1ccc(OC)c(Cl)c1 [Compound 49]
- minimal effective concentration [1, 7]: 30 µg/mL
- minimal effective concentration [1, 8]: 30 µg/mL
- minimal effective concentration [2, 6]: 30 µg/mL
- minimal effective concentration [2, 5]: 30 µg/mL
- minimal effective concentration [4, 7]: 30 µg/mL
- minimal effective concentration [4, 8]: 30 µg/mL
- minimal effective concentration [3, 6]: 1 µg/mL
- minimal effective concentration [3, 5]: 1 µg/mL

Structure (SMILES): CCC(=O)Nc1ccc(OC)c(Cl)c1 [Compound 51]
- minimal effective concentration [1, 7]: 15 µg/mL
- minimal effective concentration [1, 8]: 15 µg/mL
- minimal effective concentration [2, 6]: 10 µg/mL

Structure (SMILES): Cc1ccc(NC(=O)CCOc2ccccc2)cc1Cl [Compound 53]
- Conc. Where Decrease in Bitter Taste Discerned and p ≦ 0.1 [1]: 25 ppm
- Conc. Where Decrease in Bitter Taste Was Discerned [1]: 25 ppm
- Conc. at Which At Least 50% of Panelist Discerned Decrease in Bitter Taste [2]: 30 ppm
- Conc. Where Decrease in Bitter Taste Discerned and p ≦ 0.1 [4]: 1 ppm
- Conc. Where Decrease in Bitter Taste Was Discerned [4]: 1 ppm
- Conc. at Which At Least 50% of Panelist Discerned Decrease in Bitter Taste [3]: 30 ppm
- Conc. at Which At Least 50% of Panelist Discerned Decrease in Bitter Taste and p ≦ 0.1 [3]: 30 ppm

Structure (SMILES): Cc1ccc(NC(=O)C2COc3ccccc3O2)cc1Cl (stereo not drawn) [Compound 56]
- Conc. Where Decrease in Bitter Taste Discerned and p ≦ 0.1 [1]: 1 ppm
- Conc. at Which At Least 50% of Panelist Discerned Decrease in Bitter Taste [2]: 1 ppm
- Conc. at Which At Least 50% of Panelist Discerned Decrease in Bitter Taste and p ≦ 0.1 [2]: 1 ppm
- Conc. Where Decrease in Bitter Taste Discerned and p ≦ 0.1 [4]: 10 ppm
